{"source": "patent US8501713B2", "about": "“Drug combinations for the treatment of duchenne muscular dystrophy” (Summit Corporation PLC, priority 2007, dated 2013)", "data": [{"test_system": "Utrophin A promoter linked to a luciferase reporter gene", "assay": "Luciferase reporter assay (murine H2K cells)", "format": "cell-based", "conditions": "Mus musculus, H2K mdx, luciferase level relative to control; H2K/mdx/Utro A reporter cells; compound 10 μM final concentration; read-out: Activity", "in_short": "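Compound at 10 μM final was applied for 48 hrs to plated H2K mdx myoblasts (33° C, 10% CO2, interferon-containing medium) bearing a luciferase gene under the utrophin A promoter. Luminescence from lysed cells served as read-out.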", "units": {"activity at 10 µM": "%"}, "values": [{"compound": "CC(C)C(=O)Nc1ccc2oc(C3CCCC3)nc2c1", "note": "[Example 364, N-(2-cyclopentylbenzo[d]oxazol-5-yl)isobutyramide]", "activity at 10 µM": "< 200"}, {"compound": "CC(=O)Nc1ccc(-c2nc3cc(NC(C)=O)ccc3o2)cc1", "note": "[Example 365, N-(4-(5-acetamidobenzo[d]oxazol-2-yl)phenyl)acetamide]", "activity at 10 µM": "< 200"}, {"compound": "O=[N+]([O-])c1ccc2oc(-c3ccco3)nc2c1", "note": "[Example 366, 2-(furan-2-yl)-5-nitrobenzo[d]oxazole]", "activity at 10 µM": "< 200"}, {"compound": "CC(=O)Nc1ccc(-c2ccc3[nH]c(-c4ccc(Cl)cc4)cc3c2)cc1", "note": "[Example 367, N-(4-(2-(4-chlorophenyl)-1H-indol-5-yl)phenyl)acetamide]", "activity at 10 µM": "< 200"}, {"compound": "CC(C)C(=O)Nc1ccc2oc(-c3cccc(C(F)(F)F)c3Cl)nc2c1", "note": "[Example 368, N-(2-(2-chloro-3-(trifluoromethyl)phenyl)benzo[d]oxazol-5-yl)isobutyramide]", "activity at 10 µM": "< 200"}, {"compound": "Nc1ccc2nc(-c3ccc(Cl)c(Cl)c3)oc2c1", "note": "[Example 369, 2-(3,4-dichlorophenyl)benzo[d]oxazol-6-amine]", "activity at 10 µM": "> 401"}, {"compound": "CC(C)C(=O)Nc1ccc2nc(-c3ccc(Cl)c(Cl)c3)oc2c1", "note": "[Example 370, N-(2-(3,4-dichlorophenyl)benzo[d]oxazol-6-yl)isobutyramide]", "activity at 10 µM": "> 401"}, {"compound": "O=[N+]([O-])c1cc2oc(-c3ccc4c(c3)OCO4)nc2cc1Cl", "note": "[Example 371, 2-(benzo[d][1,3]dioxol-5-yl)-5-chloro-6-nitrobenzo[d]oxazole]", "activity at 10 µM": "301 to 400"}, {"compound": "CC(=O)Nc1ccc(-c2nc3cc(-c4ccc(Cl)cc4)ccc3o2)cc1", "note": "[Example 372, N-(4-(5-(4-chlorophenyl)benzo[d]oxazol-2-yl)phenyl)acetamide]", "activity at 10 µM": "< 200"}, {"compound": "CC(=O)Nc1ccc2oc(-c3ccc4ccccc4c3)nc2c1", "note": "[Example 373, N-(2-(naphthalen-2-yl)benzo[d]oxazol-5-yl)acetamide]", "activity at 10 µM": "> 401"}, {"compound": "CC(=O)Nc1ccc(-c2nc3cc(NC(=O)C(C)C)ccc3o2)cc1", "note": "[Example 374, N-(2-(4-acetamidophenyl)benzo[d]oxazol-5-yl)isobutyramide]", "activity at 10 µM": "< 200"}, {"compound": "CC(C)C(=O)Nc1ccc2cc(-c3ccccc3)[nH]c2c1", "note": "[Example 375, N-(2-phenyl-1H-indol-6-yl)isobutyramide]", "activity at 10 µM": "< 200"}, {"compound": "O=C(Nc1ccc2oc(-c3cccc(Cl)c3Cl)nc2c1)c1cccc(Cl)c1Cl", "note": "[Example 376, 2,3-dichloro-N-(2-(2,3-dichlorophenyl)benzo[d]oxazol-5-yl)benzamide]", "activity at 10 µM": "< 200"}, {"compound": "CN[C@@H](C)C(=O)Nc1ccc2oc(-c3ccc(Cl)cc3)nc2c1", "note": "[Example 377, (S)-N-(2-(4-chlorophenyl)benzo[d]oxazol-5-yl)-2-(methylamino)propanamide]", "activity at 10 µM": "301 to 400"}, {"compound": "CC(C)C(=O)Nc1ccc2ccn(C)c2c1", "note": "[Example 378, N-(1-methyl-1H-indol-6-yl)isobutyramide]", "activity at 10 µM": "< 200"}, {"compound": "O=[N+]([O-])c1ccc2oc(SCc3ccc(Cl)cc3)nc2c1", "note": "[Example 379, 2-(4-chlorobenzylthio)-5-nitrobenzo[d]oxazole]", "activity at 10 µM": "< 200"}, {"compound": "Nc1ccc2oc(SCc3ccc(Cl)cc3)nc2c1", "note": "[Example 380, 2-(4-chlorobenzylthio)benzo[d]oxazol-5-amine]", "activity at 10 µM": "< 200"}, {"compound": "Nc1ccc2oc(NCc3ccc(Cl)cc3)nc2c1", "note": "[Example 381, N2-(4-chlorobenzyl)benzo[d]oxazole-2,5-diamine]", "activity at 10 µM": "< 200"}, {"compound": "Cc1ccc(CSc2nc3cc([N+](=O)[O-])ccc3o2)cc1", "note": "[Example 382, 2-(4-methylbenzylthio)-5-nitrobenzo[d]oxazole]", "activity at 10 µM": "< 200"}, {"compound": "CC(C)C(=O)Nc1ccc2oc(SCc3ccc(Cl)cc3)nc2c1", "note": "[Example 383, N-(2-(4-chlorobenzylthio)benzo[d]oxazol-5-yl)isobutyramide]", "activity at 10 µM": "< 200"}, {"compound": "CC(C)C(=O)Nc1ccc2oc(-c3ccc4ccccc4c3)nc2c1", "note": "[Example 384, N-(2-(naphthalen-2-yl)benzo[d]oxazol-5-yl)isobutyramide]", "activity at 10 µM": "301 to 400"}, {"compound": "O=C(Nc1ccc2oc(-c3ccc4ccccc4c3)nc2c1)c1cccs1", "note": "[Example 385, N-(2-(naphthalen-2-yl)benzo[d]oxazol-5-yl)thiophene-2-carboxamide]", "activity at 10 µM": "< 200"}, {"compound": "CCOC(=O)Nc1ccc2oc(-c3ccc(Cl)cc3)nc2c1", "note": "[Example 386, ethyl 2-(4-chlorophenyl)benzo[d]oxazol-5-ylcarbamate]", "activity at 10 µM": "< 200"}, {"compound": "CC(C)C(=O)Nc1ccc2ccn(Cc3ccccc3)c2c1", "note": "[Example 387, N-(1-benzyl-1H-indol-6-yl)isobutyramide]", "activity at 10 µM": "< 200"}, {"compound": "O=[N+]([O-])c1ccc2oc(-c3cccs3)nc2c1", "note": "[Example 388, 5-nitro-2-(thiophen-2-yl)benzo[d]oxazole]", "activity at 10 µM": "< 200"}, {"compound": "CC(C)C(=O)Nc1ccc2cc(-c3ccccc3)n(C)c2c1", "note": "[Example 389, N-(1-methyl-2-phenyl-1H-indol-6-yl)isobutyramide]", "activity at 10 µM": "< 200"}, {"compound": "CCS(=O)(=O)c1ccc2oc(-c3cccc(Cl)c3F)nc2c1", "note": "[Example 391, 2-(3-chloro-2-fluorophenyl)-5-(ethylsulfonyl)benzo[d]oxazole]", "activity at 10 µM": "201 to 300"}, {"compound": "CCS(=O)(=O)c1ccc2oc(C3CCCCC3)nc2c1", "note": "[Example 392, 2-cyclohexyl-5-(ethylsulfonyl)benzo[d]oxazole]", "activity at 10 µM": "< 200"}, {"compound": "CCS(=O)(=O)c1ccc2oc(-c3ccc(Cl)cn3)nc2c1", "note": "[Example 393, 2-(5-chloropyridin-2-yl)-5-(ethylsulfonyl)benzo[d]oxazole]", "activity at 10 µM": "201 to 300"}, {"compound": "CCS(=O)(=O)c1ccc2oc(-c3ccc4c(c3)OCO4)nc2c1", "note": "[Example 394, 2-(benzo[d][1,3]dioxol-5-yl)-5-(ethylsulfonyl)benzo[d]oxazole]", "activity at 10 µM": "> 401"}, {"compound": "CS(=O)(=O)c1ccc(-c2nc3cc(Cl)ccc3o2)cc1", "note": "[Example 395, 5-chloro-2-(4-(methylsulfonyl)phenyl)benzo[d]oxazole]", "activity at 10 µM": "201 to 300"}, {"compound": "CC(C)C(=O)Nc1ccc2oc(-c3ccccc3)cc2c1", "note": "[Example 396, N-(2-phenylbenzofuran-5-yl)isobutyramide]", "activity at 10 µM": "> 401"}, {"compound": "Nc1cc2oc(-c3ccc4c(c3)OCO4)nc2cc1Cl", "note": "[Example 397, 2-(benzo[d][1,3]dioxol-5-yl)-5-chlorobenzo[d]oxazol-6-amine]", "activity at 10 µM": "301 to 400"}, {"compound": "CC(C)C(=O)Nc1cc2oc(-c3ccc4c(c3)OCO4)nc2cc1Cl", "note": "[Example 398, N-(2-(benzo[d][1,3]dioxol-5-yl)-5-chlorobenzo[d]oxazol-6-yl)isobutyramide]", "activity at 10 µM": "< 200"}, {"compound": "CSc1ccc2nc(-c3ccc(Cl)cc3)sc2c1", "note": "[Example 399, 2-(4-chlorophenyl)-6-(methylthio)benzo[d]thiazole]", "activity at 10 µM": "301 to 400"}, {"compound": "CS(=O)(=O)c1ccc2oc(-c3ccc(Cl)cc3)nc2c1", "note": "[Example 400, 2-(4-chlorophenyl)-5-(methylsulfonyl)benzo[d]oxazole]", "activity at 10 µM": "201 to 300"}, {"compound": "Nc1ccc2oc(-c3ccc(-c4ccccc4)cc3)nc2c1", "note": "[Example 401, 2-(biphenyl-4-yl)benzo[d]oxazol-5-amine]", "activity at 10 µM": "301 to 400"}, {"compound": "Nc1ccc2oc(-c3ccc4ccccc4n3)nc2c1", "note": "[Example 402, 2-(quinolin-2-yl)benzo[d]oxazol-5-amine]", "activity at 10 µM": "301 to 400"}, {"compound": "Nc1ccc2oc(-c3cnc4ccccc4c3)nc2c1", "note": "[Example 403, 2-(quinolin-3-yl)benzo[d]oxazol-5-amine]", "activity at 10 µM": "301 to 400"}, {"compound": "COc1ccc2cc(-c3nc4cc(N)ccc4o3)ccc2c1", "note": "[Example 404, 2-(6-methoxynaphthalen-2-yl)benzo[d]oxazol-5-amine]", "activity at 10 µM": "201 to 300"}, {"compound": "Nc1ccc2oc(-c3ccc4cc(Br)ccc4c3)nc2c1", "note": "[Example 405, 2-(6-bromonaphthalen-2-yl)benzo[d]oxazol-5-amine]", "activity at 10 µM": "< 200"}, {"compound": "CS(=O)(=O)c1ccc2nc(-c3ccc(Cl)cc3)sc2c1", "note": "[Example 406, 2-(4-chlorophenyl)-6-(methylsulfonyl)benzo[d]thiazole]", "activity at 10 µM": "> 401"}, {"compound": "CC(=O)Sc1ccc2oc(-c3ccc(Cl)cc3)nc2c1", "note": "[Example 407, S-2-(4-chlorophenyl)benzo[d]oxazol-5-yl ethanethioate]", "activity at 10 µM": "< 200"}, {"compound": "O=C(CC(F)(F)F)Nc1ccc2oc(-c3ccccc3)cc2c1", "note": "[Example 408, 2-phenyl-5-(3′,3′,3′-trifluoropropanamido)benzofuran]", "activity at 10 µM": "< 200"}, {"compound": "Clc1ccc(-c2nc3c(ccc4ccccc43)o2)cc1", "note": "[Example 409, 2-(4-chlorophenyl)naphtho[1,2-d]oxazole]", "activity at 10 µM": "> 401"}, {"compound": "CC(C)C(=O)Nc1ccc2oc(-c3cccc4ccccc34)nc2c1", "note": "[Example 410, N-(2-(naphthalen-1-yl)benzo[d]oxazol-5-yl)isobutyramide]", "activity at 10 µM": "< 200"}, {"compound": "CC(C)C(=O)Nc1ccc2oc(-c3ccc(-c4ccccc4)cc3)nc2c1", "note": "[Example 411, N-(2-(biphenyl-4-yl)benzo[d]oxazol-5-yl)isobutyramide]", "activity at 10 µM": "< 200"}, {"compound": "COc1ccc2cc(-c3nc4cc(NC(=O)C(C)C)ccc4o3)ccc2c1", "note": "[Example 412, N-(2-(6-methoxynaphthalen-2-yl)benzo[d]oxazol-5-yl)isobutyramide]", "activity at 10 µM": "< 200"}, {"compound": "CC(C)C(=O)Nc1ccc2oc(-c3ccc4cc(Br)ccc4c3)nc2c1", "note": "[Example 413, N-(2-(6-bromonaphthalen-2-yl)benzo[d]oxazol-5-yl)isobutyramide]", "activity at 10 µM": "< 200"}, {"compound": "CC(C)C(=O)Nc1ccc2oc(-c3ccc(Cl)cc3)cc2c1", "note": "[Example 414, 2-(4′-chlorophenyl)-5-isobutyramido-benzofuran]", "activity at 10 µM": "< 200"}, {"compound": "CC(C)C(=O)Nc1ccc2oc(-c3cnc4ccccc4c3)nc2c1", "note": "[Example 415, N-(2-(quinolin-3-yl)benzo[d]oxazol-5-yl)isobutyramide]", "activity at 10 µM": "> 401"}, {"compound": "CC(C)C(=O)Nc1ccc2oc(-c3ccc4ccccc4n3)nc2c1", "note": "[Example 416, N-(2-(quinolin-2-yl)benzo[d]oxazol-5-yl)isobutyramide]", "activity at 10 µM": "> 401"}, {"compound": "CCC(=O)c1ccc2oc(-c3ccc(Cl)cc3)nc2c1", "note": "[Example 417, 1-(2-(4-chlorophenyl)benzo[d]oxazol-5-yl)propan-1-one]", "activity at 10 µM": "> 401"}]}]}
